Source: patent publication US8906914B2, “Ethylene diamine modulators of fatty acid hydrolase” (priority 2009, dated 2014)
Counter-ions that a name gives are not always drawn.

Assays:
Rat FAAH-1 = molecular target: T1, Rat FAAH-1 (Rattus norvegicus, UniProt P97612); assay: Rat FAAH-1 assay (Assay Method 2), 3H-anandamide hydrolysis in cell homogenate; type: biochemical
T1 construct: expressed in transfected cells
T1 sequence (P97612 1-579): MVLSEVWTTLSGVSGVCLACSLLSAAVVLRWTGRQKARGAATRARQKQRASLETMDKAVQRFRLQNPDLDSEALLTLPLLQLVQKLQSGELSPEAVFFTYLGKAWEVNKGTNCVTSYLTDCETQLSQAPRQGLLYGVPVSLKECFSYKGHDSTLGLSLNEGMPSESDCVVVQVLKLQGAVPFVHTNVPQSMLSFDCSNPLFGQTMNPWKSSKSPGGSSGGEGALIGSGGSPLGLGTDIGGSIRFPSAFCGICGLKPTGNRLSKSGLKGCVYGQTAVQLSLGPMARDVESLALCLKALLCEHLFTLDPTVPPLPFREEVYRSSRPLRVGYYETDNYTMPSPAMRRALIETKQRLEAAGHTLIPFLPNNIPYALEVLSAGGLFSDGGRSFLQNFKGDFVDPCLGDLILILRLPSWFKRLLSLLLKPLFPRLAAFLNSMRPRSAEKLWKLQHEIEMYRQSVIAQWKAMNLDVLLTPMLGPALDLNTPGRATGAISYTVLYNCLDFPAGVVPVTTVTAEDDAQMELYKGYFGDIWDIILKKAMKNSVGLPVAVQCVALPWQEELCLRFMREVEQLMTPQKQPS
Experimental: A. Transfection of Cells with Rat FAAH-1
(§1) A 10-cm tissue culture dish with a confluent monolayer of SK-N-MC cells was split 2 days (d) prior to transfection. Using sterile technique, the media was removed and the cells were detached from the dish by the addition of trypsin. One fifth of the cells were then placed onto a new 10-cm dish. Cells were grown in a 37° C. incubator with 5% CO2 in Minimal Essential Media Eagle with 10% Fetal Bovine Serum. After 2 d, cells were approximately 80% confluent. These cells were removed from the dish with trypsin and pelleted in a clinical centrifuge. The pellet was re-suspended in 400 μL complete media and transferred to an electroporation cuvette with a 0.4 cm gap between the electrodes. Supercoiled rat FAAH cDNA (1 μg) was added to the cells and mixed. The voltage for the electroporation was set at 0.25 kV, and the capacitance was set at 960 μF. After electroporation, the cells were diluted into complete media (10 mL) and plated onto four 10-cm dishes. Because of the variability in the efficiency of electroporation, four different concentrations of cells were plated. The ratios used were 1:20, 1:10, and 1:5, with the remainder of the cells being added to the fourth dish. The cells were allowed to recover for 24 h before adding the selection media (complete media with 600 μg/mL G418). After 10 d, dishes were analyzed for surviving colonies of cells. Dishes with well-isolated colonies were used. Cells from individual colonies were isolated and tested.
(§2) The assay mixture consisted of 50 μL of the cell homogenate, 10 μL of the test compound, and 40 μL of anandamide [1-^3H-ethanolamine] (^3H-AEA, Perkin-Elmer, 10.3 Ci/mmol), which was added last, for a final tracer concentration of 80 nM. The reaction mixture was incubated at rt for 1 h. During the incubation, 96-well Multiscreen filter plates (catalog number MAFCNOB50; Millipore, Bedford, Mass., USA) were loaded with 25 μL of activated charcoal (Multiscreen column loader, catalog number MACL09625, Millipore) and washed once with 100 μL of MeOH. Also during the incubation, 96-well DYNEX MicroLite plates (catalog number NL510410) were loaded with 100 μL of MicroScint40 (catalog number 6013641, Packard Bioscience, Meriden, Conn., USA). After the 1 h incubation, 60 μL of the reaction mixture were transferred to the charcoal plates, which were then assembled on top of the DYNEX plates using Centrifuge Alignment Frames (catalog number MACF09604, Millipore). The unbound labeled ethanolamine was centrifuged through to the bottom plate (5 min at 2000 rpm), which was preloaded with the scintillant, as described above. The plates were sealed and left at rt for 1 h before counting on a Hewlett Packard TopCount.
(§3) Where activity is shown as greater than (>) a particular value, the value is the solubility limit of the compound in the assay medium or the highest concentration tested in the assay.

FAAH = molecular target: T2, FAAH (Homo sapiens, UniProt O00519); assay: Human FAAH assay (Assay Method 1), 3H-anandamide hydrolysis in cell homogenate; type: biochemical; design: expressed in transfected cells; alternatively T84 frozen cell pellets (endogenous FAAH)
T2 sequence (O00519 1-579): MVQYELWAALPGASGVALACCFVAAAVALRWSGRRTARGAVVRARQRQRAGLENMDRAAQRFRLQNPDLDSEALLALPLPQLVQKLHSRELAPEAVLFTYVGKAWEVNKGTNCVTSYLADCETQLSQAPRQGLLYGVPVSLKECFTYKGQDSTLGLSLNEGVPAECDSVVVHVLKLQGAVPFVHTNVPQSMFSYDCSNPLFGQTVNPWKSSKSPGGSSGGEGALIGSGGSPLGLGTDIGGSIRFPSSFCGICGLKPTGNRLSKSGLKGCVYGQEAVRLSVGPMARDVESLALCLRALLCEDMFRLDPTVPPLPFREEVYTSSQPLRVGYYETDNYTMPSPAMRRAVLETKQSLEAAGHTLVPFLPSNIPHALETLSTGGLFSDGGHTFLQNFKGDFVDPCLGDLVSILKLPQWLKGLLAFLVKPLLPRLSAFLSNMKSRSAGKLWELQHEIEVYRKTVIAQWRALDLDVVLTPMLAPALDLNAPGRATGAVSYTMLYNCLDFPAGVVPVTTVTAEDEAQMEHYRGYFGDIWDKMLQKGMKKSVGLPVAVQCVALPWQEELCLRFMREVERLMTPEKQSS
Experimental: A. Transfection of Cells with Human FAAH
as §1, with “Supercoiled human” for “Supercoiled rat”
as §2, with “[1-3H-ethanolamine]” for “[1-^3H-ethanolamine]”
as §3

Row | SMILES | IC50 (Rat FAAH-1) | IC50 (FAAH)
1 | CCOc1ccc(-c2cc(NC[C@H](N)c3ccccc3)ncn2)cc1 [Example 19, (1R)—N^2-[6-(4-Ethoxyphenyl)pyrimidin-4-yl]-1-phenylethane-1,2-diamine hydrochloride acid salt] | 1000 nM | 70 nM
2 | N#Cc1ccc([C@H](N)CNc2cc(-c3ccc(C(F)(F)F)c(Cl)c3)ncn2)cc1 [Example 33, (1S)-4-{1-Amino-2-[6-(3-chloro-4-trifluoromethyl-phenyl)-pyrimidin-4-ylamino]-ethyl}-benzonitrile] | 1000 nM | 570 nM
3 | N[C@H](CNc1cc(-c2ccc(C(F)(F)F)c(Cl)c2)ncn1)c1ccc(C(F)(F)F)cc1 [Example 29, (1S)—N^2-[6-(3-Chloro-4-trifluoromethyl-phenyl)-pyrimidin-4-yl]-1-(4-trifluoromethyl-phenyl)-ethane-1,2-diamine] | 1700 nM | 1400 nM
4 | N[C@H](CNc1cc(-c2ccc(C(F)(F)F)c(Cl)c2)ncn1)c1ccc(F)c(F)c1 [Example 40, (1S)—N^2-[6-(3-Chloro-4-trifluoromethyl-phenyl)-pyrimidin-4-yl]-1-(3,4-difluoro-phenyl)-ethane-1,2-diamine, trifluoroacetic acid salt] | 5000 nM | 1000 nM
5 | N[C@@H](CNc1cc(-c2ccc3c(c2)OC(F)(F)O3)ncn1)c1ccccc1 [Example 24, (1R)—N^2-[6-(2,2-Difluoro-1,3-benzodioxol-5-yl)pyrimidin-4-yl]-1-phenylethane-1,2-diamine hydrochloride acid salt] | 1000 nM | 270 nM
6 | CC(C)(C)OC(=O)N[C@@H](CNc1cc(-c2ccc(C(F)(F)F)c(Cl)c2)ncn1)c1ccccc1 [Example 2, (1R)-{2-[6-(3-Chloro-4-trifluoromethyl-phenyl)-pyrimidin-4-ylamino]-1-phenyl-ethyl}-carbamic acid tert-butyl ester] | 8000 nM | 330 nM

Compounds with a lower IC50 (Rat FAAH-1), results first:

Row | IC50 (Rat FAAH-1) | IC50 (FAAH) | SMILES
7 | 880 nM | 82 nM | N[C@@H](CNc1cc(-c2ccc(OC(F)(F)F)cc2)ncn1)c1ccccc1 [Example 6, (1R)-1-Phenyl-N^2-{6-[4-(trifluoromethoxy)phenyl]pyrimidin-4-yl}ethane-1,2-diamine hydrochloride acid salt]
8 | 280 nM | 170 nM | NC(CNc1cc(-c2ccc(C(F)(F)F)c(Cl)c2)ncn1)c1ccccc1F (stereo not shown) [Example 35, N^2-[6-(3-Chloro-4-trifluoromethyl-phenyl)-pyrimidin-4-yl]-1-(2-fluoro-phenyl)-ethane-1,2-diamine]
9 | 170 nM | 19 nM | N[C@@H](CNc1cc(-c2ccc(SC(F)(F)F)cc2)ncn1)c1ccccc1 [Example 11, (1R)-1-Phenyl-N^2-(6-{4-[(trifluoromethyl)sulfanyl]phenyl}pyrimidin-4-yl)ethane-1,2-diamine hydrochloride acid salt]
10 | 150 nM | 220 nM | CSc1ccc([C@@H](N)CNc2cc(-c3ccc(C(F)(F)F)c(Cl)c3)ncn2)cc1 [Example 54, (1R)—N^2-[6-(3-Chloro-4-trifluoromethyl-phenyl)-pyrimidin-4-yl]-1-(4-methylsulfanyl-phenyl)-ethane-1,2-diamine]
11 | 130 nM | 77 nM | N#Cc1ccc([C@@H](N)CNc2cc(-c3ccc(C(F)(F)F)c(Cl)c3)ncn2)cc1 [Example 34, (1R)-4-{1-Amino-2-[6-(3-chloro-4-trifluoromethyl-phenyl)-pyrimidin-4-ylamino]-ethyl}-benzonitrile]
12 | 95 nM | 200 nM | N[C@@H](CNc1cc(-c2ccc(C(F)(F)F)c(Cl)c2)ncn1)c1ccc(Cl)c(Cl)c1 [Example 43, (1R)—N^2-[6-(3-Chloro-4-trifluoromethyl-phenyl)-pyrimidin-4-yl]-1-(3,4-dichloro-phenyl)-ethane-1,2-diamine]
13 | 75 nM | 66 nM | N[C@@H](CNc1cc(-c2ccc(OC(F)(F)F)c(F)c2)ncn1)c1ccc(F)cc1 [Example 64, (1R)—N^2-1-(4-Fluoro-phenyl)-[6-(3-fluoro-4-trifluoromethoxy-phenyl)-pyrimidin-4-yl]-ethane-1,2-diamine, trifluoroacetic acid salt]
14 | 57 nM | 45 nM | N[C@@H](CNc1cc(-c2ccc3c(C(F)(F)F)noc3c2)ncn1)c1ccc(F)cc1 [Example 65, (1R)—N^2-1-(4-Fluoro-phenyl)-[6-(3-trifluoromethyl-benzo[d]isoxazol-6-yl)-pyrimidin-4-yl]ethane-1,2-diamine, trifluoroacetic acid salt]
